Source: ChEMBL document CHEMBL1201862, “PubChem BioAssay data set” (2004)
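Cells were grown in 96-well plates and exposed to each compound for 48 hours at five concentrations; endpoints were interpolated linearly between bracketing concentrations, or set to the highest concentration if not reached. GI50 is the concentration that inhibits growth by half.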 The source made the active and inactive calls. Rule as the data show it: active = GI50 up to about 1.1 µM and inactive = higher.

Tests used:
Assay in all cases: growth of human tumour cells (NCI), 48 h
A549 = test system: A549
MDA-N = test system: MDA-N
OVCAR-8 = test system: OVCAR-8
SK-MEL-2 = test system: SK-MEL-2
HCT-116 = test system: HCT-116
MDA-MB-231 = test system: MDA-MB-231
SNB-75 = test system: SNB-75
SN12C = test system: SN12C
T47D = test system: T47D
OVCAR-4 = test system: OVCAR-4
ACHN = test system: ACHN
LOX IMVI = test system: LOX IMVI
NCI-H460 = test system: NCI-H460
UACC-62 = test system: UACC-62
SF-295 = test system: SF-295
DU-145 = test system: DU-145
COLO 205 = test system: COLO 205
M14 = test system: M14
SR = test system: SR
MOLT-4 = test system: MOLT-4
SF-268 = test system: SF-268
HT-29 = test system: HT-29
HOP-92 = test system: HOP-92
NCI-H522 = test system: NCI-H522
PC-3 = test system: PC-3
OVCAR-3 = test system: OVCAR-3
HOP-62 = test system: HOP-62
SW-620 = test system: SW-620
HCT-15 = test system: HCT-15
EKVX = test system: EKVX
SK-MEL-5 = test system: SK-MEL-5
UACC-257 = test system: UACC-257
NCI/ADR-RES = test system: NCI/ADR-RES
Malme-3M = test system: Malme-3M
SK-OV-3 = test system: SK-OV-3
IGROV-1 = test system: IGROV-1
Hs-578T = test system: Hs-578T
U-251 = test system: U-251
SF-539 = test system: SF-539
TK-10 = test system: TK-10
NCI-H23 = test system: NCI-H23
NCI-H226 = test system: NCI-H226
KM12 = test system: KM12
OVCAR-5 = test system: OVCAR-5
HL-60 = test system: HL-60
MCF7 = test system: MCF7
RXF 393 = test system: RXF 393
CCRF-CEM = test system: CCRF-CEM
K562 = test system: K562
RPMI-8226 = test system: RPMI-8226
786-0 = test system: 786-0
MDA-MB-435 = test system: MDA-MB-435
A498 = test system: A498
HCC 2998 = test system: HCC 2998
SK-MEL-28 = test system: SK-MEL-28
CAKI-1 = test system: CAKI-1

Measured: GI50

CC(C)c1cc(C(C)C)c(B(c2ccccc2)c2ccccc2)c(C(C)C)c1B(c1ccccc1)c1ccccc1
inactive: A549 > 100 µM | MDA-N > 100 µM | OVCAR-8 > 100 µM | SK-MEL-2 > 100 µM | HCT-116 > 100 µM | MDA-MB-231 > 100 µM | SNB-75 > 100 µM | SN12C > 100 µM | T47D > 100 µM | OVCAR-4 > 100 µM | ACHN > 100 µM | LOX IMVI > 100 µM | NCI-H460 > 100 µM | UACC-62 > 100 µM | SF-295 > 100 µM | DU-145 > 100 µM | COLO 205 > 100 µM | M14 > 100 µM | SR > 100 µM | MOLT-4 > 100 µM | SF-268 > 100 µM | HT-29 > 100 µM | HOP-92 > 100 µM | NCI-H522 > 100 µM | PC-3 > 100 µM | OVCAR-3 > 100 µM | HOP-62 > 100 µM | SW-620 > 100 µM | EKVX > 100 µM | SK-MEL-5 > 100 µM | UACC-257 > 100 µM | NCI/ADR-RES > 100 µM | Malme-3M > 100 µM | SK-OV-3 > 100 µM | IGROV-1 > 100 µM | Hs-578T > 100 µM
> 100 µM: HCT-15

COC(=O)c1c2c(cc3c1CC1(Cc4cc5c(c(C(C)=O)c4C1)CCCC5)C3)CCCC2 (stereo not given)
inactive: A549 > 100 µM | MDA-N 66.4 µM | OVCAR-8 > 100 µM | U-251 > 100 µM | SK-MEL-2 21.4 µM | SF-539 > 100 µM | TK-10 > 100 µM | HCT-116 60 µM | NCI-H23 > 100 µM | MDA-MB-231 > 100 µM | SN12C > 100 µM | T47D > 100 µM | OVCAR-4 > 100 µM | ACHN 44.1 µM | NCI-H226 > 100 µM | KM12 > 100 µM | LOX IMVI > 100 µM | OVCAR-5 > 100 µM | UACC-62 > 100 µM | HL-60 12.6 µM | SF-295 > 100 µM | COLO 205 > 100 µM | M14 > 100 µM | SR 3.02 µM | MCF7 85.1 µM | RXF 393 > 100 µM | HT-29 48.8 µM | HOP-92 > 100 µM | CCRF-CEM 29.2 µM | K562 23.4 µM | NCI-H522 > 100 µM | PC-3 24.6 µM | OVCAR-3 > 100 µM | HOP-62 > 100 µM | RPMI-8226 29.6 µM | EKVX > 100 µM | 786-0 > 100 µM | SK-MEL-5 34.1 µM | MDA-MB-435 92.5 µM | UACC-257 56 µM | A498 > 100 µM | HCC 2998 > 100 µM | NCI/ADR-RES > 100 µM | Malme-3M > 100 µM | SK-OV-3 > 100 µM | IGROV-1 > 100 µM | Hs-578T > 100 µM
> 100 µM: HCT-15

CC(=O)OC[C@]12CCC3[C@@]4(C)CCCC(C)(C)C4CC[C@@]3(C)C1CC(C1=CC(=O)OC1O)O2 (stereo not given in full)
0.516 µM: HCT-15
active: OVCAR-8 0.962 µM | SK-MEL-28 512 nM | HL-60 0.428 µM | SR 0.259 µM | MOLT-4 0.252 µM | MCF7 0.726 µM | RXF 393 0.382 µM | HT-29 0.692 µM | CCRF-CEM 0.271 µM | K562 0.425 µM | SW-620 0.375 µM | RPMI-8226 0.275 µM | 786-0 0.219 µM
inactive: A549 1.85 µM | MDA-N 1.16 µM | TK-10 1.75 µM | NCI-H23 1.39 µM | MDA-MB-231 1.26 µM | SNB-75 1.8 µM | T47D 1.32 µM | KM12 1.68 µM | UACC-62 1.53 µM | DU-145 4.07 µM | COLO 205 2.25 µM | M14 1.5 µM | SF-268 1.44 µM | PC-3 1.32 µM | HOP-62 1.9 µM | EKVX 2.44 µM | SK-MEL-5 1.44 µM | HCC 2998 1.47 µM | CAKI-1 1.72 µM | SK-OV-3 1.87 µM | IGROV-1 1.19 µM
